These results are taken from patent US20250074891A1 (Anaxis Pharma Pty Ltd., priority 2021, published 2025).

Some results are limits rather than exact numbers.

What all share (conditions): Table 35
The target of one experiment is MLKL (full length) (Homo sapiens (Human), UniProt Q8NB16). In words: KINOMEscan binding assay, MLKL (full length). Here is the method: (§1) Kinase assays. For most assays, kinase-tagged T7 phage strains were grown in parallel in 24-well blocks in an E. coli host derived from the BL21 strain. E. coli were grown to log-phase and infected with T7 phage from a frozen stock (multiplicity of infection=0.4) and incubated with shaking at 32° C. until lysis (90-150 minutes).
Sequence of MLKL (full length) (Q8NB16 whole entry): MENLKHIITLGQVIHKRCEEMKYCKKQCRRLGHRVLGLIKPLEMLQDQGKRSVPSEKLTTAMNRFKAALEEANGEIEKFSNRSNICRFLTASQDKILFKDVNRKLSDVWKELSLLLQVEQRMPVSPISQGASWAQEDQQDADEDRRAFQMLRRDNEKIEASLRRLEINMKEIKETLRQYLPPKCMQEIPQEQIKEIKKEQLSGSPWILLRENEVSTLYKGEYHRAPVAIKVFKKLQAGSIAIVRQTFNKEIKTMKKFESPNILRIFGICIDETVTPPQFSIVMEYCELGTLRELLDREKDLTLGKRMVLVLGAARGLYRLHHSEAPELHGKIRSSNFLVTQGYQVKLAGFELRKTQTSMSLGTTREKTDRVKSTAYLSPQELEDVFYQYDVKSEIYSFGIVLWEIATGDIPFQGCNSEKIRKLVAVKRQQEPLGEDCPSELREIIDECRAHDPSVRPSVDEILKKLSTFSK
(§2) The Hill Slope was set to −1.

The target of a further experiment is RIP1 (Homo sapiens (Human), UniProt Q13546). In words: KINOMEscan binding assay, RIP1.
Sequence of RIP1 (Q13546 whole entry): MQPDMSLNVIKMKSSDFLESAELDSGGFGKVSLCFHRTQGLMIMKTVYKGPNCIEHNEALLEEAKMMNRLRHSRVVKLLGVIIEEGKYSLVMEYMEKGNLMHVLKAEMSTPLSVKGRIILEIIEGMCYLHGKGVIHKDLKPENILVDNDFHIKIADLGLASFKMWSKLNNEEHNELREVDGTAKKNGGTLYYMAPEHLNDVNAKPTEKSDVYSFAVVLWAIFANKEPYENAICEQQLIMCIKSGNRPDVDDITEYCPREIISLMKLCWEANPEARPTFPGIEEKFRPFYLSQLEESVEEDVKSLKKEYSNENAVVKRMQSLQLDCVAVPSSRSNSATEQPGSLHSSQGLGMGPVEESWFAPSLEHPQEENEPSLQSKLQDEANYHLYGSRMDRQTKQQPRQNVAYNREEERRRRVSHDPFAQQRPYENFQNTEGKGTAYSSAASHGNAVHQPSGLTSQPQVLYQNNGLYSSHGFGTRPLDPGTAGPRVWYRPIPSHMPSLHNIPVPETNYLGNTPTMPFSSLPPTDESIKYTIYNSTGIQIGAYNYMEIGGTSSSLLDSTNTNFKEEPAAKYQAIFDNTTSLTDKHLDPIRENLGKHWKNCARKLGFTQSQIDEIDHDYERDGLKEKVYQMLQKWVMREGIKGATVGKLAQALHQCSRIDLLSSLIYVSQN
The target in a further experiment is RIP3 (Homo sapiens (Human), UniProt Q9Y572). In words: KINOMEscan binding assay, RIP3. Here is the method:
as §1, §2

Sequence of RIP3 (Q9Y572 whole entry): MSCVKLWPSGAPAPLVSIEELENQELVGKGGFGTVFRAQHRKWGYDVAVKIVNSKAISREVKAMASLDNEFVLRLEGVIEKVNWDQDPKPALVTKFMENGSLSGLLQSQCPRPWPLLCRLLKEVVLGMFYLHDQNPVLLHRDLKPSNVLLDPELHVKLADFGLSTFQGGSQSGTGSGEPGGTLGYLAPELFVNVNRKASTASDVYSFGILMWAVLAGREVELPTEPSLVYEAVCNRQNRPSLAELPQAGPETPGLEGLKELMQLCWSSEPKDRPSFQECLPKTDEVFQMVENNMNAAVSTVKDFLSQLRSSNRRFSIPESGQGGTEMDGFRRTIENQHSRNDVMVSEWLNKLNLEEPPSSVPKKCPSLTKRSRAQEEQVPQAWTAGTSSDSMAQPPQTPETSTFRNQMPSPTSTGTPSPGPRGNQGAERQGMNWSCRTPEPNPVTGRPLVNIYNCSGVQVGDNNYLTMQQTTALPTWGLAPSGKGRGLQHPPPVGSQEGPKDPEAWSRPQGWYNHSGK

For the molecule `CCC(Oc1cc(-c2n[nH]c(Nc3cnccn3)c2C(N)=O)ccc1NS(=O)(=O)C(F)F)c1ccc(F)cc1` (racemic) [Compound 233, 3-[4-(difluoromethanesulfonamido)-3-[1-(4-fluorophenyl)propoxy]phenyl]-5-[(pyrazin-2-yl)amino]-1H-pyrazole-4-carboxamide], the figures for the Kd at MLKL (full length), at RIP1 and at RIP3 were less than 0.01 µM, more than 30 µM and more than 30 µM, respectively.
Regarding `CC(Oc1cc(-c2n[nH]c(Nc3cnccn3)c2C(N)=O)ccc1NS(=O)(=O)C(F)F)c1ncco1` (racemic) [Compound 293, 3-(4-((difluoro-methyl)sulfon-amido)-3-(1-(oxazol-2-yl)ethoxy)phenyl)-5-(pyrazin-2-ylamino)-1H-pyrazole-4-carboxamide], the Kd on MLKL (full length) was less than 0.01 µM; at RIP1, more than 30 µM; on RIP3, more than 30 µM.
For the molecule `COCC(Oc1cc(-c2n[nH]c(Nc3cc(C)on3)c2C(N)=O)ccc1NS(=O)(=O)C(F)F)c1ccc(F)cc1` (racemic) [Compound 298, 3-(4-((difluoromethyl)sulfonamido)-3-(1-(4-fluorophenyl)-2-methoxyethoxy)phenyl)-5-((5-methylisoxazol-3-yl)amino)-1H-pyrazole-4-carboxamide], the Kd on MLKL (full length) was less than 0.01 µM; on RIP1 it was more than 30 µM; on RIP3 it was more than 30 µM.
For `CCS(=O)(=O)Nc1ccc(-c2n[nH]c(Nc3cnccn3)c2C(N)=O)cc1OCc1ccc(F)c(F)c1` [Compound 1, 3-(3-((3,4-difluorobenzyl)oxy)-4-(ethylsulfonamido)phenyl)-5-(pyrazin-2-ylamino)-1H-pyrazole-4-carboxamide], the results for the Kd at MLKL (full length), on RIP1 and on RIP3 were less than 0.01 µM, more than 30 µM and more than 30 µM, respectively.
Regarding `CC(C)(C)n1nc(-c2ccc(N)c(OCc3ccc(F)cc3)c2)c(C(N)=O)c1Nc1cccc(C(F)(F)F)n1` [Compound 5, 3-(4-amino-3-((4-fluorobenzyl)oxy)phenyl)-1-(tert-butyl)-5-((6-(trifluoromethyl)pyridin-2-yl)amino)-1H-pyrazole-4-carboxamide], the results for the Kd on MLKL (full length), at RIP1 and at RIP3 were 0.01 to 1 µM, more than 30 µM and more than 30 µM, respectively.
As to `CCS(=O)(=O)Nc1ccc(-c2n[nH]c(Nc3cccc(OC)n3)c2C(N)=O)cc1OCc1ccc(F)cc1` [Compound 11, 3-(4-(ethylsulfonamido)-3-((4-fluorobenzyl)oxy)phenyl) 5-((6-methoxypyridin-2-yl)amino)-1H-pyrazole-4-carboxamide], the figures for the Kd at MLKL (full length), at RIP1 and at RIP3 were less than 0.01 µM, more than 30 µM and more than 30 µM, respectively.
As for `CCS(=O)(=O)Nc1ccc(-c2n[nH]c(Nc3cnc(OC)cn3)c2C(N)=O)cc1OCc1ccc(F)cc1` [Compound 14, 3-(4-(ethylsulfonamido)-3-((4-fluorobenzyl)oxy)phenyl) 5-((5-methoxypyrazin-2-yl)amino)-1H-pyrazole-4-carboxamide], the Kd is less than 0.01 µM on MLKL (full length), more than 30 µM at RIP1 and more than 30 µM at RIP3.
Regarding `CCS(=O)(=O)Nc1ccc(-c2n[nH]c(Nc3cncc(OC)n3)c2C(N)=O)cc1OCc1ccc(F)cc1` [Compound 15, 3-(4-(ethylsulfonamido)-3-((4-fluorobenzyl)oxy)phenyl) 5-((6-methoxypyrazin-2-yl)amino)-1H-pyrazole-4-carboxamide], the Kd at MLKL (full length) is less than 0.01 µM; on RIP1, more than 30 µM; on RIP3 it was more than 30 µM.
On to `CCS(=O)(=O)Nc1ccc(-c2n[nH]c(Nc3cncc(C(F)(F)F)n3)c2C(N)=O)cc1OCc1ccc(F)cc1` [Compound 17, 3-(4-(ethylsulfonamido)-3-((4-fluorobenzyl)oxy)phenyl)5-((6-(trifluoromethyl)pyrazin-2-yl)amino)-1H-pyrazole-4-carboxamide], for which the Kd was less than 0.01 µM at MLKL (full length), more than 30 µM on RIP1 and more than 30 µM on RIP3.
With `CCS(=O)(=O)Nc1ccc(-c2n[nH]c(Nc3ccccn3)c2C(N)=O)cc1OCc1ccccc1` [Compound 20, 3-(3-(benzyloxy)-4-(ethylsulfon-amido)phenyl)-5-(pyridin-2-ylamino)-1H-pyrazole-4-carboxamide], the Kd was less than 0.01 µM on MLKL (full length), more than 30 µM on RIP1 and more than 30 µM on RIP3.
Regarding `CCS(=O)(=O)Nc1ccc(-c2n[nH]c(Nc3ccccn3)c2C(N)=O)cc1OCc1cccc(Cl)c1` [Compound 38, 3-(3-((3-chlorobenzyl)oxy)-4-(ethylsulfon-amido)phenyl)-5-(pyridin-2-ylamino)-1H-pyrazole-4-carboxamide], the Kd on MLKL (full length) was less than 0.01 µM; at RIP3, more than 30 µM.
For `CCS(=O)(=O)Nc1ccc(-c2n[nH]c(Nc3ccccn3)c2C(N)=O)cc1OCc1ccc(Cl)cc1` [Compound 39, 3-(3-((4-chlorobenzyl)oxy)-4-(ethylsulfon-amido)phenyl)-5-(pyridin-2-ylamino)-1H-pyrazole-4-carboxamide], in that order: less than 0.01 µM and more than 30 µM.
`CCS(=O)(=O)Nc1ccc(-c2n[nH]c(Nc3cnccn3)c2C(N)=O)cc1OCC1CCN(C)CC1` [Compound 203, 3-(4-(ethylsulfonamido)-3-((1-methylpiperidin-4-yl)methoxy)phenyl)-5-(pyrazin-2-ylamino)-1H-pyrazole-4-carboxamide]: the Kd at RIP1 and on RIP3 was more than 30 µM in each case.
For `CCS(=O)(=O)Nc1ccc(-c2n[nH]c(Nc3ccc(C(F)(F)F)cn3)c2C(N)=O)cc1OCc1ccc(F)cc1` [Compound 207], the dissociation constant (Kd) on RIP1 and at RIP3 was more than 30 µM each time.
Take `CCS(=O)(=O)Nc1ccc(-c2n[nH]c(Nc3cnccn3)c2C(N)=O)c(OCc2cccc(F)c2)c1` [Compound 208, 3-(4-(ethylsulfonamido)-2-((3-fluorobenzyl)oxy)phenyl)-5-(pyrazin-2-ylamino)-1H-pyrazole-4-carboxamide]: the Kd at RIP1 and on RIP3 was more than 30 µM throughout.
As to `CCS(=O)(=O)Nc1ccc(-c2n[nH]c(Nc3cnccn3)c2C(N)=O)c(OC)c1` [Compound 209, 3-(4-(ethylsulfonamido)-2-methoxyphenyl)-5-(pyrazin-2-ylamino)-1H-pyrazole-4-carboxamide], the Kd on RIP1 and on RIP3 was more than 30 µM throughout.
In the case of `CCS(=O)(=O)Nc1ccc(-c2n[nH]c(Nc3cnccn3)c2C(N)=O)cc1OCc1cccc(OC(F)(F)F)c1` [Compound 214, 3-(4-(ethylsulfonamido)-3-((3-(trifluoromethoxy)benzyl)oxy)phenyl)-5-(pyrazin-2-ylamino)-1H-pyrazole-4-carboxamide], the Kd at RIP1 and at RIP3 was more than 30 µM each time.
Take `CCS(=O)(=O)Nc1ccc(-c2n[nH]c(Nc3cnccn3)c2C(N)=O)cc1OCc1ccc(OC(F)(F)F)cc1` [Compound 215, 3-(4-(ethylsulfonamido)-3-((4-(trifluoromethoxy)benzyl)oxy)phenyl)-5-(pyrazin-2-ylamino)-1H-pyrazole-4-carboxamide]: the Kd at RIP1 and on RIP3 was more than 30 µM each time.
On to `CCS(=O)(=O)Nc1ccc(-c2n[nH]c(Nc3cnccn3)c2C(N)=O)cc1OCc1ccc(C(F)(F)F)cc1` [Compound 216, 3-(4-(ethylsulfonamido)-3-((4-(trifluoromethyl)benzyl)oxy)phenyl)-5-(pyrazin-2-ylamino)-1H-pyrazole-4-carboxamide], for which the Kd on RIP1 and on RIP3 was more than 30 µM throughout.
Consider `CCS(=O)(=O)Nc1ccc(-c2n[nH]c(Nc3cnccn3)c2C(N)=O)cc1OCc1cccc(C(F)(F)F)c1` [Compound 218, 3-(4-(ethylsulfonamido)-3-((3-(trifluoromethyl)benzyl)oxy)phenyl)-5-(pyrazin-2-ylamino)-1H-pyrazole-4-carboxamide], for which the Kd at RIP1 and at RIP3 was more than 30 µM in each case.
Consider `CCS(=O)(=O)Nc1ccc(-c2n[nH]c(Nc3ccc4cc(Cl)ccc4n3)c2C(N)=O)cc1OCc1ccc(F)cc1` [Compound 220, 5-((6-chloroquinolin-2-yl)amino)-3-(4-(ethylsulfonamido)-3-((4-fluorobenzyl)oxy)phenyl)-1H-pyrazole-4-carboxamide], for which the Kd on RIP1 and at RIP3 was more than 30 µM in each case.
For `C[C@H](Oc1cc(NS(=O)(=O)C(F)F)ccc1-c1n[nH]c(Nc2cnccn2)c1C(N)=O)c1ccc(F)cc1` [Compound 243, 3-[4-(difluoromethanesulfonamido)-2-[(1 S)-1-(4-fluorophenyl)ethoxy]phenyl]-5-[(pyrazin-2-yl)amino]-1H-pyrazole-4-carboxamide], the Kd on RIP1 and at RIP3 was more than 30 µM each time.
Consider `C[C@H](Oc1cc(NS(=O)(=O)CC(F)(F)F)ccc1-c1n[nH]c(Nc2cnccn2)c1C(N)=O)c1ccc(F)cc1` [Compound 244, 3-{2-[(1S)-1-(4-fluorophenyl)ethoxy]-4-(2,2,2-trifluoroethanesulfonamido)phenyl}-5-[(pyrazin-2-yl)amino]-1H-pyrazole-4-carboxamide], for which the Kd on RIP1 and at RIP3 was more than 30 µM in each case.
Take `C[C@@H](Oc1cc(NS(=O)(=O)CC(F)(F)F)ccc1-c1n[nH]c(Nc2cnccn2)c1C(N)=O)c1ccc(F)cc1` [Compound 254, 3-{2-[(1R)-1-(4-fluorophenyl)ethoxy]-4-(2,2,2-trifluoroethanesulfonamido)phenyl}-5-[(pyrazin-2-yl)amino]-1H-pyrazole-4-carboxamide]: the Kd at RIP1 and at RIP3 was more than 30 µM throughout.
For `C[C@@H](Oc1cc(NS(=O)(=O)C(F)F)ccc1-c1n[nH]c(Nc2cnccn2)c1C(N)=O)c1ccc(F)cc1` [Compound 255, 3-[4-(difluoromethanesulfonamido)-2-[(1R)-1-(4-fluorophenyl)ethoxy]phenyl]-5-[(pyrazin-2-yl)amino]-1H-pyrazole-4-carboxamide], the Kd on RIP1 and at RIP3 was more than 30 µM each time.
For the molecule `C[C@H](Oc1cc(-c2n[nH]c(Nc3cc(C45CC6CC(CC(C6)C4)C5)on3)c2C(N)=O)ccc1NS(=O)(=O)C(F)F)c1ccc(F)cc1` [Compound 304], the Kd at RIP1 and on RIP3 was more than 30 µM in each case.
